In ChEMBL document CHEMBL1122505, “Pyrimidine and triazine 3-oxide sulfates: a new family of vasodilators” (1983):
Where a name gives a salt, the structure may show the parent alone.

How the values were obtained:
Type in all cases: functional, Artery
Rattus norvegicus [1] = experiment: Average change in mean arterial blood pressure (mmHg) observed at 4 hr after oral administration at a dose of 14 mg/kg in female Sprague-Dawley rats
Rattus norvegicus [2] = experiment: Average change in mean arterial blood pressure (mmHg) observed at 4 hr after oral administration at a dose of 5 mg/kg in female Sprague-Dawley rats
Rattus norvegicus [3] = experiment: Average change in mean arterial blood pressure (mmHg) observed at 4 hr after oral administration at a dose of 50 mg/kg in female Sprague-Dawley rats
Rattus norvegicus [4] = experiment: Average change in mean arterial blood pressure (mmHg) observed at 4 hr after oral administration at a dose of 0.15 mg/kg in female Sprague-Dawley rats

Q: For `Cc1cc(N2CCOCC2)nc(N)[n+]1OS(=O)(=O)[O-]`, which Delta blood pressure (Rattus norvegicus [1]) is on record?
A: -37 mmHg

Q: With `C=CCN(CC=C)c1nc(N)[n+](OS(=O)(=O)[O-])c(N)n1` as the compound, how does the Delta blood pressure (Rattus norvegicus [2]) read?
A: -21 mmHg

Q: Which Delta blood pressure (Rattus norvegicus [3]) does the source give for `CNc1cc(N)[n+](OS(=O)(=O)[O-])c(N)n1` here?
A: -8 mmHg

Q: With `Cc1cc(N2CCCC2)nc(N)[n+]1OS(=O)(=O)[O-]` as the compound, how does the Delta blood pressure (Rattus norvegicus [3]) read?
A: -39 mmHg

Q: With `Nc1cc(N2CCCCC2)nc(N)[n+]1OS(=O)(=O)[O-]` [MINOXIDIL SULFATE] as the compound, how does the Delta blood pressure (Rattus norvegicus [4]) read?
A: -16 mmHg
